Data on one compound can be found in paper PMC7273348, “Unraveling a Tangled Skein: Evolutionary Analysis of the Bacterial Gibberellin Biosynthetic Operon” (mSphere, 2020).

The target in the assay is T1, ReIDS2 (ReGGPS2) (Rhizobium etli, UniProt Q8KLD2).
T1 construct: gene RHE_PD00244; full-length ORF in pET101/D-TOPO, C-terminal 6xHis tag, E. coli BL21 Star
T1 sequence (Q8KLD2 1-309): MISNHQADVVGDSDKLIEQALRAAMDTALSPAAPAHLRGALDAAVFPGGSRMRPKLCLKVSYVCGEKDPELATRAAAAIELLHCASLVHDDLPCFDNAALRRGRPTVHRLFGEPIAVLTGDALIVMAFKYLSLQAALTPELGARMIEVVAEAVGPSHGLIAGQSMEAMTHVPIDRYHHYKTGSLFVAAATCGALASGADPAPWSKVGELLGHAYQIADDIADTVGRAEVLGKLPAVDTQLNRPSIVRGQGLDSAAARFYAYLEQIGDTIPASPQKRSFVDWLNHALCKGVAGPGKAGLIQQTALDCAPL
The assay is described as follows: LC-MS/MS detection of GGPP product. Format: biochemical. The note with it: 50 uM IPP + 50 uM DMAPP; MOPSO pH 7.2, 10 mM MgCl2; 30 C, 2 h; main product GGPP.

With `CC(C)=CCOP(=O)(O)OP(=O)(O)O` [DMAPP], the “LC-MS/MS detection of GGPP product” value is “produced GGPP as its major product from the universal isoprenoid precursors IPP and DMAPP”.
